In ChEMBL document CHEMBL5360565, “Discovery of novel arylpiperazine-based DA/5-HT modulators as potential antipsychotic agents - Design, synthesis, structural studies and pharmacological profiling” (Eur J Med Chem, 2023):

Assay: in vitro
Conditions: PAMPA, pH 7.4

Papp at 5 h [×10⁻⁶ cm/s]	Compound
9.13	Cn1c(=O)c2c(ncn2C)n(C)c1=O [CAFFEINE]
0.006	CCN1CCCC1CNC(=O)c1cc(S(N)(=O)=O)ccc1OC (configuration not stated) [SULPIRIDE]
